Consider 14 compounds from patent US20240246908A1 (ORION CORPORATION, priority 2021, published 2024).

The subject of the test is YAP-TEAD. The experiment in a line: TEAD inhibition, Hippo Pathway TEAD Reporter MCF-7 luciferase assay. The format is cell-based. As to conditions: Homo sapiens, MCF7, 24 h, Hippo Pathway TEAD Reporter MCF-7 cells, luciferase activity after 24 h; read-out: IC50 of the test compounds on YAP-TEAD inhibition (Group). Put shortly:
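MCF-7 cells carrying a TEAD-responsive firefly luciferase reporter, with nuclear YAP1 driving constitutive expression, were treated the day after plating with compounds (11 concentrations, 4 replicates; 0.1% DMSO control). After 24 h, luciferase was read by ONE-Glo luminescence and IC50 determined.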

A value given as a limit tells only on which side of the number the result lay.

`COc1ccc(Oc2ccc(F)c(F)c2)cc1NC(=O)C1COC(=O)N1C` (centres unmarked) [Compound 88, N-(5-(3,4-Difluorophenoxy)-2-methoxyphenyl)-3-methyl-2-oxooxazolidine-4-carboxamide]: the IC50 (in general, the midpoint of a concentration-inhibition curve) is below 0.05 µM.
Then `COc1ccc(Oc2ccc(C(F)(F)F)cc2)cc1NC(=O)C1CCS(=N)(=O)CC1` (centres unmarked) [Compound 381, 1-Imino-N-(2-methoxy-5-(4-(trifluoromethyl)phenoxy)phenyl)-hexahydro-1λ^6-thiopyran-4-carboxamide 1-oxide], with 0.05 to 0.3 µM; and `COc1ccc(Oc2ccc(F)cc2)cc1NC(=O)C1CCC(=O)N1C` (centres unmarked) [Compound 260, N-(5-(4-Fluorophenoxy)-2-methoxyphenyl)-1-methyl-5-oxopyrrolidine-2-carboxamide], with 0.05 to 0.3 µM; and `COc1ccc(Oc2ccc(C(F)(F)F)cc2)cc1NC(=O)CC1C(=O)N(C)C(=O)N1C` (centres unmarked) [Compound 341, 2-(1,3-Dimethyl-2,5-dioxoimidazolidin-4-yl)-N-(2-methoxy-5-(4-(trifluoro-methyl)phenoxy)phenyl)acetamide], with 0.301 to 2 µM.
`COc1ccc(O[C@H]2CC[C@@H](C(F)(F)F)CC2)cc1NC(=O)[C@@H]1CCC(=O)N1C` [Compound 210, (S)—N-(2-Methoxy-5-(((cis)-4-(trifluoromethyl)cyclohexyl)oxy)phenyl)-1-methyl-5-oxopyrrolidine-2-carboxamide]: the IC50 was below 0.05 µM.
As to `COc1ccc(OC2CCC(F)(F)CC2)cc1NC(=O)C1COC(=O)N1C` (centres unmarked) [Compound 104, N-(5-((4,4-Difluorocyclohexyl)oxy)-2-methoxyphenyl)-3-methyl-2-oxo-oxazolidine-4-carboxamide], the IC50 fell in the range of 0.05 to 0.3 µM.
With `CN1C(=O)CCC1C(=O)Nc1cc(Oc2ccc(F)c(F)c2)ccc1-c1ccnn1C` (centres unmarked) [Compound 86, N-(5-(3,4-Difluorophenoxy)-2-(1-methyl-1H-pyrazol-5-yl)phenyl)-1-methyl-5-oxopyrrolidine-2-carboxamide], the IC50 was 0.05 to 0.3 µM.
Then `COc1ccc(Oc2ccc(C(F)(F)F)cc2)cc1NC(=O)C1CNC(=O)N1` (centres unmarked) [Compound 144, N-(2-Methoxy-5-(4-(trifluoromethyl)phenoxy)phenyl)-2-oxoimidazolidine-4-carboxamide], with 0.05 to 0.3 µM; and `COc1ccc(Oc2ccc(C(F)(F)F)cc2)cc1NC(=O)C12CCC(=O)N1CCS2(=O)=O` (centres unmarked) [Compound 252, N-(2-Methoxy-5-(4-(trifluoromethyl)phenoxy)phenyl)-5-oxotetrahydropyrrolo[2,1-b]thiazole-7a(5H)-carboxamide 1,1-dioxide], with 0.301 to 2 µM.
Turning to `O=C1CCC(C(=O)Nc2cc(OC3CCC(F)(F)CC3)cc3c2OCCO3)CN1` (centres unmarked) [Compound 191, N-(7-((4,4-Difluorocyclohexyl)oxy)-2,3-dihydrobenzo[b][1,4]dioxin-5-yl)-6-oxopiperidine-3-carboxamide], the IC50 lay within 0.301 to 2 µM.
For `COc1ccc(Oc2cc(F)cc(F)c2)cc1NC(=O)C1CCC(=O)N1C` (centres unmarked) [Compound 78, N-(5-(3,5-Difluorophenoxy)-2-methoxyphenyl)-1-methyl-5-oxopyrrolidine-2-carboxamide], the 50% inhibitory concentration (IC50) is 0.05 to 0.3 µM.
Turning to `COc1cc(OC)c(NC(=O)C2CCC(=O)N2)cc1COc1cccc(F)c1` (centres unmarked) [Compound 4, N-(5-((3-Fluorophenoxy)methyl)-2,4-dimethoxyphenyl)-5-oxopyrrolidine-2-carboxamide], the IC50 was in the range of 0.301 to 2 µM.
In the case of `O=C1CCC(C(=O)Nc2cc(Oc3cccc(C(F)(F)F)c3)cc3c2OCCO3)N1` (centres unmarked) [Compound 55, 5-Oxo-N-(7-(3-(trifluoromethyl)phenoxy)-2,3-dihydrobenzo[b][1,4]dioxin-5-yl)pyrrolidine-2-carboxamide], the half-maximal inhibitory concentration (IC50) lay within 0.05 to 0.3 µM.
As for `CN1C(=O)CCC1C(=O)Nc1cc(Oc2ccc(C(F)(F)F)cc2)cc2cn[nH]c12` (centres unmarked) [Compound 225, 1-Methyl-5-oxo-N-(5-(4-(trifluoromethyl)phenoxy)-1H-indazol-7-yl)-pyrrolidine-2-carboxamide], the half-maximal inhibitory concentration (IC50) was in the range of 0.301 to 2 µM.
